Assay results as given in publication PMC10353390, “Biological and Structural Analyses of New Potent Allosteric Inhibitors of HIV-1 Integrase” (Antimicrobial Agents and Chemotherapy, 2023).
Like-named read-outs stand apart in the source and are kept apart here.

Legend:
[1] = molecular target: HIV-1 IN-LEDGF/p75 interaction (Human immunodeficiency virus type 1 group M subtype B, UniProt P12497); experiment: biochemical
Method: (§1) The INLAIs were tested for the ability to inhibit the HIV-1 IN-LEDGF/p75 interaction in a homogeneous time-resolved fluorescence (HTRF) assay. Our assays used either full-length IN and LEDGF/p75 proteins or their respective minimally sufficient interaction domains: the CCD of HIV-1 IN and the IBD of LEDGF/p75 (Table 1).
(§2) HTRF-based CCD-IBD interaction, IN-LEDGF/p75 interaction and IN multimerization assays were performed as described previously ([12]).

NL4-3 HIV-1 strain = experiment: Multiple-round infection assay in MT4 cells, NL4-3; format: cell-based; conditions: MT4 cells
HIV-1 IN = molecular target: T1, HIV-1 IN (Human immunodeficiency virus type 1 group M subtype B, UniProt P12497); experiment: HTRF IN multimerization assay; format: biochemical; conditions: mean ± SD
T1 construct: made in house
From the text: A key property of INLAIs is the ability to promote HIV-1 IN homo-multimerization ([39][–][42]). […] The maximal signal (plateau) in our IN aggregation assay corresponds to the highest HTRF signal increase under saturating INLAI concentration, relative to baseline level. Thus, MUT916, MUT884, MUT871, and MUT872 increased HIV-1 IN aggregation 3.7 to 4.4-fold, while BDM-2, BI-224436, and S-I-82 did so 5 to 6-fold (Table 1).

[2] = system: lab-adapted and clinical HIV-1 isolates; experiment: Infection assays in primary T CD4+ lymphocytes; format: cell-based; conditions: Human immunodeficiency virus 1, Lymphocyte
[3] = system: NL4-3 HIV-1 with INLAI-selected IN single point mutations; format: cell-based
[4] = molecular target: CCD of HIV-1 IN and IBD of LEDGF/p75 (Human immunodeficiency virus type 1 group M subtype B, UniProt P12497); experiment: biochemical
Method: as §1, §2

[5] = system: primary HIV-1 isolates with polymorphisms at IN positions 124 and 125; experiment: Multiple-round infection of MT4 cells with primary HIV-1 isolates polymorphic at IN positions 124 and 125; format: cell-based; conditions: primary isolate
Outline: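 Antiviral potency read as protection of cell viability (CellTiter-Glo luminescence). Infection at MOI 0.001 lasted 2 h with compound present at a range of concentrations, using MT4 cells at 10^6/mL in exponential growth.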

[6] = Cytotoxicity assay in MT4 cells; format: cell-based; conditions: human, MT4 cells (proliferating human T-cell line), CellTiter-Glo
From the text: Growth inhibition was monitored in a proliferating human T-cell line (MT4) with different concentrations of compounds, using the CellTiter-Glo luminescent reagent (Promega), as previously described ([12]).

HXB2 HIV-1 strain = experiment: Multiple-round infection assay in MT4 cells, HXB2; format: cell-based; conditions: Human immunodeficiency virus 1, HXB2; multiple-round infection, MT4 cells; mean ± SD, n > 5; read-out: EC50 HXB2
Outline: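 Antiviral read-out was CellTiter-Glo luminescent viability of exponentially growing MT4 cells (10^6/mL). Cells were exposed to HIV-1 for 2 h at an MOI of 0.001 while compound was present at varying concentrations.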

[7] = system: recombinant NL4-3 viruses with polymorphisms at IN positions 124 and 125; experiment: Multiple-round infection of MT4 cells with recombinant NL4-3 viruses polymorphic at IN positions 124 and 125; format: cell-based, HIV-1
Outline: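 EC50 fold change relative to wild-type TT NL4-3 was derived from CellTiter-Glo viability of exponentially growing MT4 cells (10^6/mL). Cells were exposed for 2 h, with compounds, to NL4-3 clones bearing one of 15 IN 124/125 variants at MOI 0.001.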

[8] = system: VSV-G-pseudotyped NL4-3Δenv-luc; experiment: microbe, parasite or virus in culture; format: cell-based, HIV-1; conditions: Human immunodeficiency virus 1, NL43, MT4, read-out: EC50 in single-round infection
[9] = system: HIV-1 strains resistant to INSTIs, NRTIs, NNRTIs or PIs; format: cell-based
Outline: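 Cell viability (CellTiter-Glo luminescence) served as read-out in MT4 cells at 10^6/mL, infected 2 h at MOI 0.001 in presence of graded compound concentrations. Viruses: resistance-mutation recombinants in NL4-3 backbone plus resistant clinical isolates.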

[10] = INSTI-resistant, NL4-3 background
[11] = INSTI-resistant, primary patient-derived strain

SMILES: Cc1nc2ccccc2c(-c2ccc3c4c(ccnc24)CCO3)c1[C@H](OC(C)(C)C)C(=O)O [BI-224436, reference compound]
- IC50 [1]: 90 ± 19 nM
- EC90 (NL4-3 HIV-1 strain; Human immunodeficiency virus 1, NL43, multiple-round infection, from dose response curves, read-out: EC90 NL4-3): 77 ± 34 nM
- EC50 (NL4-3 HIV-1 strain; Human immunodeficiency virus 1, NL43, multiple-round infection, mean ± SD, n > 5, read-out: EC50 NL4-3): 51 ± 17 nM
- Selectivity index CC50/EC50 NL4-3 (NL4-3 HIV-1 strain): >3,921
- AC50 (HIV-1 IN; concentration for 50% maximum activation of multimerization): 34 ± 11 nM
- IN multimerization Plateau (HIV-1 IN; maximum multimerization reached versus baseline): 670 ± 210%
- EC50 ([2]; read-out: EC50 33913N (B)): 20 ± 9 nM
- EC50 ([2]; read-out: EC50 HXB2 (B)): 14 ± 7 nM
- EC50 ([2]; read-out: EC50 KER2008 (A)): 37 ± 12 nM
- EC50 ([2]; read-out: EC50 NL4-3 (B)): 100 ± 80 nM
- EC50 ([2]; read-out: EC50 NP1525 (CRF01_AE)): 61 ± 35 nM
- EC50 ([2]; read-out: EC50 NP1538 (B)): 66 ± 42 nM
- EC50 fold change compared to wild type NL4-3, A128T [3]: 6
- EC50 fold change compared to wild type NL4-3, H171Q [3]: 4
- EC50 fold change compared to wild type NL4-3, N222K [3]: 2
- EC50 fold change compared to wild type NL4-3, T174I [3]: 706
- EC50 fold change compared to wild type NL4-3, Y99H [3]: 2
- IC50 [4]: 73 ± 13 nM
- Fold change in EC50 relative to parental NL4-3, CAM2BBY (CRF02) ([5]; IN 124/125 AA): 2
- Fold change in EC50 relative to parental NL4-3, E0836M4 (D) ([5]; IN 124/125 AA): 1
- Fold change in EC50 relative to parental NL4-3, KER2008 (A) ([5]; IN 124/125 AA): 1
- Fold change in EC50 relative to parental NL4-3, NP1525 (CRF01) ([5]; IN 124/125 AA): 1
- Fold change in EC50 relative to parental NL4-3, NP1695 (CRF02) ([5]; IN 124/125 AA): 2
- Fold change in EC50 relative to parental NL4-3, TZA125 (C) ([5]; IN 124/125 AA): 0.5
- Fold change in EC50 relative to parental NL4-3, KSM4030 (A) ([5]; IN 124/125 GA): 1
- Fold change in EC50 relative to parental NL4-3, vGA (C) ([5]; IN 124/125 GA): 2
- Fold change in EC50 relative to parental NL4-3, 99ET14 (C) ([5]; IN 124/125 NA): 1
- Fold change in EC50 relative to parental NL4-3, NP1538 (B) ([5]; IN 124/125 NA): 1
- Fold change in EC50 relative to parental NL4-3, vNA_1 (B) ([5]; IN 124/125 NA): 2
- Fold change in EC50 relative to parental NL4-3, vNA_2 (CRF02) ([5]; IN 124/125 NA): 2
- Fold change in EC50 relative to parental NL4-3, vNV (B) ([5]; IN 124/125 NV): 1
- Fold change in EC50 relative to parental NL4-3, vSA_1 (B) ([5]; IN 124/125 SA): 3
- Fold change in EC50 relative to parental NL4-3, vSA_2 (CRF02) ([5]; IN 124/125 SA): 2
- Fold change in EC50 relative to parental NL4-3, vTA_1 (B) ([5]; IN 124/125 TA): 2
- Fold change in EC50 relative to parental NL4-3, vTA_2 (CRF02) ([5]; IN 124/125 TA): 2
- CC50 [6]: > 200000 nM
- EC50 (HXB2 HIV-1 strain): 23 ± 8.4 nM
- Fold change in EC50 relative to parental NL4-3, AA ([7]; recombinant NL4-3, IN 124/125 AA): 1
- Fold change in EC50 relative to parental NL4-3, AM ([7]; recombinant NL4-3, IN 124/125 AM): 0.4
- Fold change in EC50 relative to parental NL4-3, AT ([7]; recombinant NL4-3, IN 124/125 AT): 1
- Fold change in EC50 relative to parental NL4-3, AV ([7]; recombinant NL4-3, IN 124/125 AV): 1
- Fold change in EC50 relative to parental NL4-3, GA ([7]; recombinant NL4-3, IN 124/125 GA): 1
- Fold change in EC50 relative to parental NL4-3, GT ([7]; recombinant NL4-3, IN 124/125 GT): 2
- Fold change in EC50 relative to parental NL4-3, NA ([7]; recombinant NL4-3, IN 124/125 NA): 1
- Fold change in EC50 relative to parental NL4-3, NT ([7]; recombinant NL4-3, IN 124/125 NT): 1
- Fold change in EC50 relative to parental NL4-3, NV ([7]; recombinant NL4-3, IN 124/125 NV): 1
- Fold change in EC50 relative to parental NL4-3, SA ([7]; recombinant NL4-3, IN 124/125 SA): 1
- Fold change in EC50 relative to parental NL4-3, ST ([7]; recombinant NL4-3, IN 124/125 ST): 1
- Fold change in EC50 relative to parental NL4-3, TA ([7]; recombinant NL4-3, IN 124/125 TA): 1
- Fold change in EC50 relative to parental NL4-3, TM ([7]; recombinant NL4-3, IN 124/125 TM): 0.4
- Fold change in EC50 relative to parental NL4-3, TV ([7]; recombinant NL4-3, IN 124/125 TV): 1
- EC50 [8]: 1400 ± 300 nM
- Fold change in EC50 relative to NL4-3, E92Q [9, 10]: 1
- Fold change in EC50 relative to NL4-3, G140S [9, 10]: 1
- Fold change in EC50 relative to NL4-3, G140S/Q148H [9, 10]: 1
- Fold change in EC50 relative to NL4-3, N155H [9, 10]: 1
- Fold change in EC50 relative to NL4-3, Q148H [9, 10]: 1
- Fold change in EC50 relative to NL4-3, Y143R [9, 10]: 1
- Fold change in EC50 relative to NL4-3, E92Q/N155H (pat.) [9, 11]: 1
- Fold change in EC50 relative to NL4-3, G140S/Q148H (pat.) [9, 11]: 1
- Fold change in EC50 relative to NL4-3, T97A/N155H (pat.) [9, 11]: 1
- Fold change in EC50 relative to NL4-3, NLAY351717 ([9]; NRTI-resistant clone): 1
- Fold change in EC50 relative to NL4-3, NLAY351753 ([9]; NRTI/NNRTI-resistant clone): 1
- Fold change in EC50 relative to NL4-3, K103N/Y181C ([9]; NRTI/NNRTIs group, NL4-3 background): 1
- Fold change in EC50 relative to NL4-3, ARP-4595 ([9]; PI-resistant virus): 0.4
- Fold change in EC50 relative to NL4-3, ARP-4596 ([9]; PI-resistant virus): 0.5
- Fold change in EC50 relative to NL4-3, ARP-11801 ([9]; PI-resistant virus): 1
- Fold change in EC50 relative to NL4-3, ARP-11803 ([9]; PI-resistant virus): 1
- Fold change in EC50 relative to NL4-3, ARP-11807 ([9]; PI-resistant virus): 1
- Fold change in EC50 relative to NL4-3, ARP-11808 ([9]; PI-resistant virus): 1
